The structures appear in SMILES notation.

A short description of the data set: Human HepG2 cell viability assay in 384 well format. Type of data set: toxicity, cell-based. Also on record: dose 125 nL, time 70.5 hour; concentration not given beside the values. The note with it: HepG2 cells, read-out: Inhibition.
As to `Oc1ccc(N2CCN(Cc3cc4c(cc3Br)OCCO4)CC2)cc1`, the cytotoxicity at 70.5 h is 5.3%.
`O=C(NCC1CCCO1)C1CCN(Cc2nc(C3CC3)no2)CC1` (centres undefined): the cytotoxicity at 70.5 h was determined as 3.81%.
Turning to `CS(=O)(=O)NCC1CCCCN1C(=O)c1csc(-c2ccsc2)n1` (centres undefined), the cytotoxicity at 70.5 h came out at 0.102%.
As for `COc1cc(C)c(C(C)NC(=O)c2cccnc2N(C)C)cc1OC` (centres undefined), the cytotoxicity at 70.5 h is -6.36%.
Take `Cc1csc(CCNc2ccc(C#N)cn2)n1`: the cytotoxicity at 70.5 h is -11.4%.
Take `Cc1ccc(F)cc1NC(=O)NCC(C)N1CCOCC1` (centres undefined): the cytotoxicity at 70.5 h came to 9.4%.
The value for `Cc1[nH]ncc1CCCNC(=O)Nc1ccc(C#N)cc1` was -4.85%; that for `CN(C)c1nc2sc(C(=O)N3CCN(C(=O)OC(C)(C)C)CC3)cc2s1` was -8.07%.
Then `Cc1nnc(CN2CCOC(c3ccc(Cl)cc3)C2)o1` (centres undefined), with 0.631%; and `COCCOc1ncccc1CNC(=O)N1CCOCC1`, with -7.27%; and `Cc1cc(C2CCCN2CCCc2nc3ccccc3o2)on1` (centres undefined), with -16.1%.
Turning to `O=C(c1cccnc1Oc1ccccc1)N1CCCn2ncnc21`, the cytotoxicity at 70.5 h was 4.54%.
The value for `COC(=O)c1cccc(C(=O)N(C)Cc2cccc(O)c2)c1` was 15.5%; that for `CC(C)(CNc1ccc(S(=O)(=O)C(F)F)cc1)N1CCOCC1` was 18.8%; that for `CS(=O)(=O)N1CCN(Cc2ccc(F)cc2Br)CC1` was -9.98%.
As for `O=C1CCCc2cc(-c3csc(CCN4CCOC4=O)n3)ccc2N1`, the cytotoxicity at 70.5 h was -0.559%.
Then `Cc1nc2ccccc2c(=O)n1Cc1nnnn1C1CC1`, with 1.18%.
Then `Cc1ccc(C(=O)N(C)CC(=O)NCC(F)(F)F)cn1`, with 0.05%; and `c1ccc(C2CCN(c3cncc(-n4cccn4)n3)CC2)cc1`, with -4.22%; and `Cc1ncc(CN(C)C(=O)Nc2cccc(N3CCOC3=O)c2)s1`, with 25%.
Then `CC(=O)N(C)Cc1ccccc1NC(=O)c1cnn(C)c1C`, with -0.121%; and `COC(=O)C1CCN(C(=O)CN2CCN(c3cccc(C)c3)CC2)CC1`, with -8.14%.
For the compound `CCC(NC(N)=O)c1ccccc1OCC(=O)N1CCCC1` (centres undefined), the cytotoxicity at 70.5 h was -10.1%.
On to `CS(=O)(=O)c1ccc(Cl)c(NC(=O)NCCC2=CCCCC2)c1`, for which the cytotoxicity at 70.5 h was -8.84%.
With `CCN(C(=O)c1cccc2c1OCO2)c1ccccc1`, the cytotoxicity at 70.5 h was -4.98%.
Then `Cc1nn(C)c(Cl)c1S(=O)(=O)N(C)C`, with 1.44%; and `Cc1ccnc(NC(=O)c2ccc(Br)o2)c1`, with -4.47%.
As to `COc1ccccc1COCC(O)CN(C)Cc1cccc(Cl)c1` (centres undefined), the cytotoxicity at 70.5 h was -23.5%.
As to `O=c1cc(CNCc2ccc3c(c2)OCO3)nc2ccc(Br)cn12`, the cytotoxicity at 70.5 h is 0.0084%.
The value for `Cc1ccc(C(CC(=O)O)NC(=O)CCc2cccs2)cc1` (centres undefined) was -1.09%; that for `Cc1ccc(Cl)cc1N1CCN(CC(=O)NC(C)c2ccco2)CC1` (centres undefined) was 1.33%.
Then `COCCCN(Cc1ccccn1)S(=O)(=O)N(C)C`, with 26.3%; and `CC(C)Oc1ccc(C(=O)Nc2nncs2)cn1`, with 5.43%.
For the compound `CN(C)C(=O)c1cccc(CNc2ccc(C#N)cn2)c1`, the cytotoxicity at 70.5 h turned out to be 5.12%.
The value for `CN(c1cccnn1)C1CCN(C(=O)c2n[nH]c3c2CCC3)CC1` was -4.09%.
Turning to `CC(=O)Nc1nc(-c2ccccc2)c[nH]1`, the cytotoxicity at 70.5 h is 3.67%.
For the compound `CCC1CCCCCN1C(=O)c1nnc2ccccc2c1N` (centres undefined), the cytotoxicity at 70.5 h was -2.66%.
Then `CCCS(=O)(=O)N1CCN(c2cc(-n3cccc3)nc(C)n2)CC1`, with -5.53%.
The value for `CC(=O)OC1CN(c2nc3c(C(F)(F)F)cccc3s2)C1` was -11.8%.
Then `CC(=O)N1CCC(CSCc2ccco2)CC1`, with 12.9%; and `O=C(c1ccco1)N1CCC(CSCc2ccco2)CC1`, with -7.2%.
In the case of `O=C(c1ccccn1)N1CCC(Oc2cccnc2)CC1`, the cytotoxicity at 70.5 h is -8.37%.
Then `COCCc1noc(C2CCN(S(=O)(=O)c3cccs3)CC2)n1`, with 10.6%; and `COc1c2ccc(C(=O)NCCCn3ncccc3=O)cc2nn1C`, with 13.9%; and `CC(=O)N1CCc2[nH]c(=O)ccc2C1`, with -6.79%.
Take `CN(C)CC1CSCCCN1C(=O)c1ccc(-n2cccc2)cc1` (centres undefined): the cytotoxicity at 70.5 h was -4.81%.
Then `CN(C)CC1CSCCCN1C(=O)c1ccc(-c2ccccc2)cc1` (centres undefined), with -0.605%.
Then `CN(C)c1cccc(C(=O)N2CCCSCC2CN2CCCC2)c1` (centres undefined), with 3.97%; and `N#Cc1ccc(C(=O)N2CCCSCC2CN2CCCC2)cc1` (centres undefined), with -5.18%; and `COc1cccc(OCC(=O)N2CCCSCC2CN2CCOCC2)c1` (centres undefined), with 14.1%.
For `Cc1cccnc1NC(=O)C1CSc2ncc(C)c(=O)n2C1` (centres undefined), the cytotoxicity at 70.5 h is -2.04%.
For `CC(C)(C)c1cc(=O)n2c(n1)SCC(C(=O)NCc1cccs1)C2` (centres undefined), the cytotoxicity at 70.5 h came out at 0.387%.
Then `COc1cc(C(=O)NCCCc2ccccc2)on1`, with -1.09%; and `O=C(Cn1c(=O)oc2ccccc21)NCC(O)c1ccc2c(c1)CCO2` (centres undefined), with -2.64%.
The value for `Cc1noc(C)c1S(=O)(=O)NCC(O)c1ccc2c(c1)CCO2` (centres undefined) was 17.6%.
The value for `COc1nn(C)cc1C(=O)NCC1(O)CCc2ccccc2C1` (centres undefined) was -5.25%.
With `COCCN(Cc1ccoc1)C(=O)c1ccccc1OC`, the cytotoxicity at 70.5 h was -1.89%.
Take `COCCN(Cc1ccoc1)C(=O)c1ccc(Cl)s1`: the cytotoxicity at 70.5 h is -6.8%.
The value for `CCSc1ccccc1C(=O)N(CCOC)Cc1ccoc1` was 25%; that for `COCCN(Cc1ccoc1)S(=O)(=O)c1ccc(OC)c(Cl)c1` was -20.8%; that for `CCOC(=O)NCCC(O)c1ccoc1` (centres undefined) was -11.9%.
As to `Cc1cc(C(O)CCNC(=O)COc2ccccc2F)c(C)o1` (centres undefined), the cytotoxicity at 70.5 h is -0.424%.
With `Cc1cc(C(O)CCNS(=O)(=O)c2ccc(Cl)s2)c(C)o1` (centres undefined), the cytotoxicity at 70.5 h was -15.4%.
Then `COC1(CNC(=O)c2ccoc2)CCSC1` (centres undefined), with -11%.
Then `COc1ccc(OC)c(S(=O)(=O)NCC2(OC)CCSC2)c1` (centres undefined), with -7.48%; and `COC1(CNS(=O)(=O)c2ccccc2Br)CCSC1` (centres undefined), with -4.04%.
Then `COc1ccc(C(=O)Nc2ccccc2-c2ccc(=O)n(C)n2)cc1`, with 3.05%; and `Cn1nc(-c2ccccc2NC(=O)c2cncc(Br)c2)ccc1=O`, with 15.4%.
With `O=C(NCC(F)(F)F)c1ccc(-n2cncn2)nn1`, the cytotoxicity at 70.5 h stood at 1.36%.
The value for `Cc1ccc(C(=O)NCCn2nc(-n3cncn3)ccc2=O)c(C)c1` was 29.8%; that for `CS(=O)(=O)C1CCN(S(=O)(=O)c2ccc(F)c(F)c2)C1` (centres undefined) was -5.07%.
Take `CS(=O)(=O)C1CCN(S(=O)(=O)Cc2cccc(F)c2)CC1`: the cytotoxicity at 70.5 h turned out to be 0.12%.
On to `CS(=O)(=O)C1CCN(S(=O)(=O)c2ccc(F)c(F)c2)CC1`, for which the cytotoxicity at 70.5 h came out at 1.4%.
In the case of `O=C(CN1C(=O)CCC1=O)N1Cc2cncnc2C1`, the cytotoxicity at 70.5 h is -2.85%.
For `CS(=O)(=O)N1CCCC1CS(=O)(=O)c1ccccc1` (centres undefined), the cytotoxicity at 70.5 h is -11.6%.
On to `O=S(=O)(CC1CCCN1S(=O)(=O)C1CC1)c1ccccc1` (centres undefined), for which the cytotoxicity at 70.5 h was -6.46%.
Then `Cc1cc(CNC(=O)c2cnoc2C)c(C)o1`, with -12%; and `Cn1cnc(S(=O)(=O)NCC(O)c2ccc3c(c2)CCO3)c1` (centres undefined), with -16.8%; and `Cn1cnc(S(=O)(=O)NCCC(O)c2ccc3c(c2)OCO3)c1` (centres undefined), with 20.5%.
The value for `CN(C)C(=O)Cc1ccc(NC(=O)c2cn(C)nn2)cc1` was -4.9%.
On to `Cc1nsc(C(=O)NCCc2ccc(S(N)(=O)=O)cc2)n1`, for which the cytotoxicity at 70.5 h was -5.58%.
Then `Cc1nsc(C(=O)NCCCc2ccccc2)n1`, with -5.43%; and `Cc1nsc(C(=O)NCCc2ccc(Cl)cc2)n1`, with 2.81%.
For the compound `Cc1nsc(C(=O)NCCc2ccc(F)cc2)n1`, the cytotoxicity at 70.5 h is -1.44%.
Then `Cc1nsc(C(=O)NCCc2cccs2)n1`, with -5.79%; and `Cc1nc(N(C)C)nc(C)c1NC(=O)c1ccccc1F`, with -7.08%.
Then `Cc1cc(C)c(S(=O)(=O)Nc2c(C)nc(N(C)C)nc2C)cc1C`, with 7.13%; and `Cc1nc(N(C)C)nc(C)c1NS(=O)(=O)c1ccc(F)cc1F`, with -2.45%; and `Cc1ccc(S(=O)(=O)Nc2c(C)nc(N3CCCC3)nc2C)cc1`, with -2.23%.
The value for `Cc1nc(N2CCOCC2)nc(C)c1NS(=O)(=O)c1ccccc1` was -4.03%; that for `CCS(=O)(=O)NCc1nc(C)cc(N2CCCC2)n1` was 19.2%; that for `CCCS(=O)(=O)NCc1nc(C)cc(N2CCCC2)n1` was -5.66%.
As to `CCS(=O)(=O)NCc1nc(C)cc(N2CCOCC2)n1`, the cytotoxicity at 70.5 h was -6.72%.
On to `O=C(Cc1ccc(F)cc1)NCCNc1cc(N2CCCC2)cnn1`, for which the cytotoxicity at 70.5 h is 30.6%.
Consider `CCC(=O)N1CCN(c2cc(N(C)C)cnn2)CC1`, for which the cytotoxicity at 70.5 h is -10.5%.
Then `CC(C)C(=O)N1CCN(c2cc(N(C)C)cnn2)CC1`, with -5.3%; and `O=C(c1ccccn1)N1CCN(c2cnnc(N3CCCC3)c2)CC1`, with -10.9%.
`CCOc1ccc(S(=O)(=O)Nc2cnc(OC)nc2OC)cc1`: the cytotoxicity at 70.5 h amounted to 9.83%.
Then `COc1ncc(NS(=O)(=O)c2ccc(F)c(F)c2)c(OC)n1`, with -1.82%; and `CC(C)(C)CC(=O)NCCn1ccc(-c2ccncc2)n1`, with -15.2%; and `CC(=O)NCCn1ccc(-c2ccccn2)n1`, with -2.73%.
Regarding `O=C(NCCn1ccc(-c2ccccn2)n1)C1CCC1`, the cytotoxicity at 70.5 h amounted to 1.58%.
The value for `COc1cc(CNC(C)c2ccc(F)c(F)c2)cc2c1OCCO2` (centres undefined) was 1.07%.
As to `COc1ccc(CN(C)CC(O)COCc2ccccc2Cl)c(OC)c1` (centres undefined), the cytotoxicity at 70.5 h was determined as 16.2%.

Source of the values: ChEMBL document CHEMBL3507680, “University of Dundee, Gates Library screen for HepG2 cell viability”.
